Data from ChEMBL document CHEMBL1909046, “DrugMatrix in vitro pharmacology data”.
pIC50, pKi: −log10 of the molar value.

How the values were obtained:
[1] = target: Delta-type opioid receptor (Homo sapiens, UniProt P41143); assay type: cell membranes, HEK293, Membrane; conditions: for IC50: hek293; as to all read-outs here: in other assays of this panel Not Active means under 50% inhibition at 10 µM
[2] = DRUGMATRIX: Serotonin (5-Hydroxytryptamine) 5-HT3 radioligand binding (ligand: [3H] GR-65630); assay type: cell membranes, Membrane; conditions: hek293; Not Active = under 50% inhibition at 10 µM
[3] = target: T1, Cytochrome P450 2A6 (Homo sapiens, UniProt P11509); conditions: bti-tn-5b1-4; also: in other assays of this panel Not Active means under 50% inhibition at 10 µM
T1 sequence (P11509 whole entry): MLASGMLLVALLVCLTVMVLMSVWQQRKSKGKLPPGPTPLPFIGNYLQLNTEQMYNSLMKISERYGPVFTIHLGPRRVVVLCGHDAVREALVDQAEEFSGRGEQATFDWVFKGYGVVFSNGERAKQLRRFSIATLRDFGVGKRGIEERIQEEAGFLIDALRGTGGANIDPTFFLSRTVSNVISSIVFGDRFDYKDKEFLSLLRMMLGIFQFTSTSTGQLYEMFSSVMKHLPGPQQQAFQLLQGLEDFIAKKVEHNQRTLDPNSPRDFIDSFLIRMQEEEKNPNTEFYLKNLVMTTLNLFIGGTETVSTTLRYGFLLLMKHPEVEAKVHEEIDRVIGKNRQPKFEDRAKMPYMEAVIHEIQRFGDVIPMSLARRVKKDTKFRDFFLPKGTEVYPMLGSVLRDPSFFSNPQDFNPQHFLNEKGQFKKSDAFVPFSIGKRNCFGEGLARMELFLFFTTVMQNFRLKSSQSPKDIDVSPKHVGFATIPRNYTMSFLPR

[4] = target: Platelet-activating factor receptor (Homo sapiens, UniProt P25105); assay type: tissue-based; also: in other assays of this panel Not Active means under 50% inhibition at 10 µM
Sequence of Platelet-activating factor receptor (P25105 whole entry): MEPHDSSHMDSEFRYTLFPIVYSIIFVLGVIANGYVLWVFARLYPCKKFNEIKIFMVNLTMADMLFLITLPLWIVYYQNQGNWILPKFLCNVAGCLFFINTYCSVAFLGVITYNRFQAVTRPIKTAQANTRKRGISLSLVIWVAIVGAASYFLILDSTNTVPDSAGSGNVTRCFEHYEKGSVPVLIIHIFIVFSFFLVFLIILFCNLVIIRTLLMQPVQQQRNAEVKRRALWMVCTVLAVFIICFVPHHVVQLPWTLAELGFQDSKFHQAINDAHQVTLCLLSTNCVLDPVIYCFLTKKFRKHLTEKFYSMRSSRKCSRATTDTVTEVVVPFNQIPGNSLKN

[5] = target: T2, Muscarinic acetylcholine receptor M4 (Homo sapiens, UniProt P08173); assay type: cell membranes, CHO-K1, Membrane; conditions: cho-k1; also: in other assays of this panel Not Active means under 50% inhibition at 10 µM
T2 sequence (P08173 whole entry): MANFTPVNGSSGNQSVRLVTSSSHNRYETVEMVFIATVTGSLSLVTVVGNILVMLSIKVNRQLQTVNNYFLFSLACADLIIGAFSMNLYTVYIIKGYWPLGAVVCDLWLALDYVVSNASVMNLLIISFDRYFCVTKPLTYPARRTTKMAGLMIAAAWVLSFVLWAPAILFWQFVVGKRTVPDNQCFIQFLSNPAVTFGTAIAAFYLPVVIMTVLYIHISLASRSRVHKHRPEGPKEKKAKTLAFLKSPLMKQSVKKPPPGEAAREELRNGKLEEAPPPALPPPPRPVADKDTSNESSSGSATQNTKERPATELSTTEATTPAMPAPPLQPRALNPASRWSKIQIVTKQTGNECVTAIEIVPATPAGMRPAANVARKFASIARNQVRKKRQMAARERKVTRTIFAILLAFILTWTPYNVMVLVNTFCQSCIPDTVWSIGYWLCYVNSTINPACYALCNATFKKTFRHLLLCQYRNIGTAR

[6] = target: T3, Endothelin-1 receptor (Homo sapiens, UniProt P25101); assay type: cell membranes, Membrane; conditions: cho-k1; also: in other assays of this panel Not Active means under 50% inhibition at 10 µM
T3 sequence (P25101 whole entry): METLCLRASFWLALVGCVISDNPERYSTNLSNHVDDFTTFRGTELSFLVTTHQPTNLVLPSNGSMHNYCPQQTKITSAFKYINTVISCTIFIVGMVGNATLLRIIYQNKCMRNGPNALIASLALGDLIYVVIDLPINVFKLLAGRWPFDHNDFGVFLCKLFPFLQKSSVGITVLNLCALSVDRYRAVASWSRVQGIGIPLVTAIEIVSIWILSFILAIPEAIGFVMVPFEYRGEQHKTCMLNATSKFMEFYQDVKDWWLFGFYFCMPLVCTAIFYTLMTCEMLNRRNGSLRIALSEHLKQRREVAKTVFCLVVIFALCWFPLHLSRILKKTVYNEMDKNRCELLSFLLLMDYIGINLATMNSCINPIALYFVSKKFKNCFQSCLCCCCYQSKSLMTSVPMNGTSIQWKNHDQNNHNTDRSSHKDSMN

[7] = target: Beta-3 adrenergic receptor (Homo sapiens, UniProt P13945); test: DRUGMATRIX: Adrenergic beta3 radioligand binding (ligand: [125I] Cyanopindolol); assay type: cell membranes, Membrane; conditions: hek293; Not Active = under 50% inhibition at 10 µM
Sequence of Beta-3 adrenergic receptor (P13945 whole entry): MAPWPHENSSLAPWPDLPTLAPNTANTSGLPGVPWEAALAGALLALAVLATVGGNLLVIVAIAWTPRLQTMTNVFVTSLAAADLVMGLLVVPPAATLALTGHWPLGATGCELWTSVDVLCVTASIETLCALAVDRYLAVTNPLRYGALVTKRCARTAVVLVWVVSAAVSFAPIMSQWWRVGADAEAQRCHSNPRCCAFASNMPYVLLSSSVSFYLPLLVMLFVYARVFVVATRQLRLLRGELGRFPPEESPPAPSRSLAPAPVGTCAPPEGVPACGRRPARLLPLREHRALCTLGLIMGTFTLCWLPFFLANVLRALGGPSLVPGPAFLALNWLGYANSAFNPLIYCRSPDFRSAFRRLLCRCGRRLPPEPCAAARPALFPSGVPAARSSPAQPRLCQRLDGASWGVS

[8] = target: Estrogen receptor beta (Homo sapiens, UniProt Q92731); conditions: sf9; also: in other assays of this panel Not Active means under 50% inhibition at 10 µM
Sequence of Estrogen receptor beta (Q92731 whole entry): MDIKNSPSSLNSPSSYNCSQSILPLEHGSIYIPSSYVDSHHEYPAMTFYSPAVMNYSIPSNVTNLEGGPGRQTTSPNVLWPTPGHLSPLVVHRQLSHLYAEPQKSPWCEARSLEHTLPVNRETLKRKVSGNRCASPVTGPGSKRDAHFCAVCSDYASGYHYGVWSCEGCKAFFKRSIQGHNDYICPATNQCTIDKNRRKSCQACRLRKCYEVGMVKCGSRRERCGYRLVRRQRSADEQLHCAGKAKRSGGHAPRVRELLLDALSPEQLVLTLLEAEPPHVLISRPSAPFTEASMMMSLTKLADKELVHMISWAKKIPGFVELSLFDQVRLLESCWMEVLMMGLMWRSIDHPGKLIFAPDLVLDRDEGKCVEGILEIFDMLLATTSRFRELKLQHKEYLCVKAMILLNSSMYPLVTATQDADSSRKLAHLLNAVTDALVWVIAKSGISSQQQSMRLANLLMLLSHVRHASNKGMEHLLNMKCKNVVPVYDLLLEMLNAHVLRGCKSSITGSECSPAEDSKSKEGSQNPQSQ

[9] = DRUGMATRIX: ATPase, Na+/K+ enzyme inhibition (substrate: ATP); assay type: tissue-based, Sus scrofa, Heart; conditions: Not Active = under 50% inhibition at 10 µM
[10] = target: T4, D(4) dopamine receptor (Homo sapiens, UniProt P21917); test: DRUGMATRIX: Dopamine D4.2 radioligand binding (ligand: [3H] Spiperone); assay type: cell membranes, Membrane; conditions: cho-k1; Not Active = under 50% inhibition at 10 µM
T4 sequence (P21917 whole entry): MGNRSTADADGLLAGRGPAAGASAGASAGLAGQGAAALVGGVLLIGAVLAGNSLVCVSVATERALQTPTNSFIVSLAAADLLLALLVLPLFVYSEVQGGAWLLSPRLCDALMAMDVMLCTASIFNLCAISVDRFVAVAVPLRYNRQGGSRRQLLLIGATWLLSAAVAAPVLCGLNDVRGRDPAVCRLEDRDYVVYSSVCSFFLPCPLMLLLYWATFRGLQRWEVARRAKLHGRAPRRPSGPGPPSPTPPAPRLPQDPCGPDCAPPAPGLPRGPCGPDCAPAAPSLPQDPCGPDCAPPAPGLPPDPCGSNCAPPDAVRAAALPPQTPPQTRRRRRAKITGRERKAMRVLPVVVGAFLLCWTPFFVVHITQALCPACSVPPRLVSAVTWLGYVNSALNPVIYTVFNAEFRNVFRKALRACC

[11] = target: Carbonic anhydrase 2 (Homo sapiens, UniProt P00918); test: DRUGMATRIX: Carbonic Anhydrase II enzyme inhibition (substrate: 4-Nitrophenyl acetate (4-NPA)); assay type: tissue-based, Erythrocyte; conditions: erythrocyte; Not Active = under 50% inhibition at 10 µM

Sequence of Delta-type opioid receptor (P41143 whole entry): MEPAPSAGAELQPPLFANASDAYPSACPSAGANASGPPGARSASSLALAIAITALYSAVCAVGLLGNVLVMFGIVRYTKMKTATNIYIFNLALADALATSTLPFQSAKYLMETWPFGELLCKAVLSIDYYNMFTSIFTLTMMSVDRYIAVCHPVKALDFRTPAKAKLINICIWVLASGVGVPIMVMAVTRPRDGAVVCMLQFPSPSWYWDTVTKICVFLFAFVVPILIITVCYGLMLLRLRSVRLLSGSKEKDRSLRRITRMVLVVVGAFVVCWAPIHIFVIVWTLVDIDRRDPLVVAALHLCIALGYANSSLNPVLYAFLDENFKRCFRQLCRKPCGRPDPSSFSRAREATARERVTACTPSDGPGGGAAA

SMILES	IC50 [1]	IC50 [2]	Ki [2]	IC50 [3]	Ki [3]	IC50 [4]	IC50 [5]	IC50 [6]	IC50 [7]	IC50 [8]	IC50 [9]	Ki [9]	IC50 [10]	IC50 [11]	pIC50 ([1]; read-out: IC50)	pKi ([1]; read-out: Ki)
CC(=O)N[C@@H]1[C@H](Oc2c3cc4cc2Oc2ccc(cc2Cl)[C@@H](O[C@@H]2O[C@@H](CO)[C@@H](O)[C@H](O)[C@@H]2NC(C)=O)[C@@H]2NC(=O)[C@H](NC(=O)[C@@H]4NC(=O)[C@H]4NC(=O)[C@@H](Cc5ccc(c(Cl)c5)O3)NC(=O)[C@H](N)c3ccc(O)c(c3)Oc3cc(O)cc4c3)c3ccc(O)c(c3)-c3c(O[C@H]4O[C@H](CO)[C@@H](O)[C@@H](O)[C@@H]4O)cc(O)cc3[C@@H](C(=O)O)NC2=O)O[C@@H](CO)[C@@H](O)[C@@H]1O	Not Active	Not Active	Not Active	Not Active	Not Active	Not Active	Not Active	Not Active	Not Active	Not Active	Not Active	Not Active	Not Active	Not Active		
CC(=O)N1CCN(c2ccc(OCC3COC(Cn4ccnc4)(c4ccc(Cl)cc4Cl)O3)cc2)CC1 (stereo not drawn) [KETOCONAZOLE]		Not Active	Not Active	Not Active	Not Active	Not Active	Not Active	Not Active	Not Active	Not Active	Not Active	Not Active	Not Active	Not Active	4.89	5.35
COCCCOc1ccnc(C[S+]([O-])c2nc3ccccc3[nH]2)c1C (stereo not drawn) [RABEPRAZOLE]	Not Active	Not Active	Not Active	Not Active	Not Active	Not Active	Not Active	Not Active	Not Active	Not Active	Not Active	Not Active	Not Active	Not Active		
CNC(=C[N+](=O)[O-])NCCSCc1ccc(CN(C)C)o1 [RANITIDINE]	Not Active	Not Active	Not Active	Not Active	Not Active	Not Active	Not Active	Not Active	Not Active	Not Active	Not Active	Not Active	Not Active	Not Active		
CO[C@H]1/C=C/O[C@@]2(C)Oc3c(C)c(O)c4c(c3C2=O)C2=NC3(CCN(CC(C)C)CC3)NC2=C(NC(=O)/C(C)=C\C=C\[C@H](C)[C@H](O)[C@@H](C)[C@@H](O)[C@@H](C)[C@H](OC(C)=O)[C@@H]1C)C4=O [RIFABUTIN]	Not Active	Not Active	Not Active	Not Active	Not Active	Not Active	Not Active	Not Active	Not Active	Not Active	Not Active	Not Active	Not Active	Not Active		
CC(C)CC(N(C)C)C1(c2ccc(Cl)cc2)CCC1 (stereo not drawn) [SIBUTRAMINE]	Not Active	Not Active	Not Active	Not Active	Not Active	Not Active	Not Active	Not Active	Not Active	Not Active	Not Active	Not Active	Not Active	Not Active		
[H]/N=C(/N)N[C@H]1[C@H](O)[C@@H](O)[C@H](O[C@@H]2O[C@@H](C)[C@](O)(C=O)[C@H]2O[C@@H]2O[C@@H](CO)[C@H](O)[C@@H](O)[C@@H]2NC)[C@@H](N/C(N)=N\[H])[C@@H]1O [STREPTOMYCIN]	Not Active	Not Active	Not Active	Not Active	Not Active	Not Active	Not Active	Not Active	Not Active	Not Active	Not Active	Not Active	Not Active	Not Active		
COc1cc(NS(=O)(=O)c2ccc(N)cc2)nc(OC)n1 [SULFADIMETHOXINE]	Not Active	Not Active	Not Active	Not Active	Not Active	Not Active	Not Active	Not Active	Not Active	Not Active	Not Active	Not Active	Not Active	Not Active		
CN1C(C(=O)Nc2ccccn2)=C(O)c2sccc2S1(=O)=O [TENOXICAM]	Not Active	Not Active	Not Active	Not Active	Not Active	Not Active	Not Active	Not Active	Not Active	Not Active	Not Active	Not Active	Not Active	Not Active		
CC(C)(C)c1ccc(C(O)CCCN2CCC(C(O)(c3ccccc3)c3ccccc3)CC2)cc1 (stereo not drawn) [TERFENADINE]	Not Active	Not Active	Not Active	Not Active	Not Active	Not Active	Not Active	Not Active	Not Active	Not Active	Not Active	Not Active	Not Active	Not Active		
O=C1CCC(N2C(=O)c3ccccc3C2=O)C(=O)N1 (stereo not drawn) [THALIDOMIDE]	Not Active	Not Active	Not Active	Not Active	Not Active	Not Active	Not Active	Not Active	Not Active	Not Active	Not Active	Not Active	Not Active	Not Active		
Cc1cccc(Nc2ccncc2S(=O)(=O)NC(=O)NC(C)C)c1 [TORSEMIDE]	Not Active	Not Active	Not Active	Not Active	Not Active	Not Active	Not Active	Not Active	Not Active	Not Active	Not Active	Not Active	Not Active	Not Active		
CC(C)C[C@H](NC(=O)[C@@H](O)[C@H](N)Cc1ccccc1)C(=O)O [UBENIMEX]	Not Active	Not Active	Not Active	Not Active	Not Active	Not Active	Not Active	Not Active	Not Active	Not Active	Not Active	Not Active	Not Active	Not Active		
